Earlier results, collected in patent publication US8178083B2, “Treatment of optic neuritis” (Ares Trading, S.A., priority 2005, dated 2012).

Test system: patients with acute isolated unilateral optic neuritis

## C[C@]12C=CC(=O)C=C1CC[C@@H]1[C@@H]2C(=O)C[C@@]2(C)[C@H]1CC[C@]2(O)C(=O)CO [prednisone]
Oral prednisone 1 mg/kg per day for 14 days
  risk of a new optic neuritis attack in the fellow eye versus placebo-treated group: more than double
Within 2 years of follow-up
  patients who developed new bouts of optic neuritis (in either the affected or fellow eye): 30%
